Test results: patent US6063819A (priority 1998, dated 2000)
“Also recorded” adds a separate entry of the source. Where two headings read alike, the source gives them in different places.

Tests used:
[1] = molecular target: L-type calcium channels; experiment: Competitive inhibition of 3H-PN200-110 (or 3H-nitrendipine) binding to L-type calcium channels, rat brain neuronal membranes; conditions: Table 1
[2] = test system: neurons of the CA1 region of the hippocampus; experiment: Hippocampal slice assay: protection of CA1 neurons against hypoxic injury (recovery of population spike); assay type: cell-based, male Sprague-Dawley rats; conditions: for EC50: Rattus norvegicus, Neuron, 1 h, 50% recovery 60 minutes after hypoxia; for relative potency in hippocampal slices: comparison CYP-PA2 with CYP-PA1, or CYP-PA2X with CYP-PA2
Method: (2) Additional in vitro tests involving perfused slices of hippocampal tissue from the brains of sacrificed rats, as described in Example 8. Various poly-guanidino candidates with good combinations of N-channel and P/Q-channel blocking potency (as shown in the ligand blocking assays of Example 7) were tested to determine their ability to protect hippocampal neurons against damage during and after a period of tissue hypoxia.
The ability of CYP-PA1 and CYP-PA2 to protect against hypoxic injury in neurons of the CA1 region of the hippocampus was examined, using an assay which involves intact tissue sections taken from the hippocampal regions of rat brains. To carry out these assays, male Sprague-Dawley rats were briefly anesthetized with halothane and decapitated. Brains were quickly removed and placed in cold artificial cerebral spinal fluid (ACSF) for one minute. ACSF was composed of (in mM): NaCl, 126; KCl, 4; KH2 PO4, 1.4; MgSO4, 1.3; CaCl2, 2.4; NaHCO3, 26; and glucose, 4; pH 7.4, saturated with 95% O2, 5% CO2. Hippocampi were dissected free from the brains, and cut into 475 μm transverse sections (also called slices). The slices were placed in paired recording wells perfused with ACSF maintained at 37° C. Several hippocampal slices were placed in each recording well.
One hour after placement of the tissue slices into recording wells, the orthodromic CA1 population spike (PS) was measured. This indicator of synaptic and neuronal cell body function was elicited by stimulation with a twisted bipolar electrode placed over the CA3 Schaffer collaterals. Responses were recorded in the pyramidal layer of CA1, using a tungsten electrode. Strengths of currents and recording electrode depth were adjusted to obtain maximal amplitude of the CA1 PS. Only slices having an orthodromic CA1 PS of 3 mV or greater on initial assessment were used for further testing.
One tissue slice in each well was given orthodromic stimulation every 30 seconds throughout the experiment, in order to monitor evoked response activity. These slices were designated as "stimulated slices." In general, periodic stimulation provides an even more rigorous test of neuroprotective ability, since the repeated stimulation forces neurons to use up their metabolic resources after each impulse, to reestablish a polarized and ready-to-fire status.
For the remaining slices in each well, orthodromic and antidromic PS amplitude was assessed at the beginning and end of each experiment, without any periodic stimulation. These slices were designated as "unstimulated slices."
All slices were subjected to hypoxia by changing the perfusion medium to oxygen-devoid ACSF saturated with 95% N2, 5% CO2. Slices in one recording well additionally received exposure to various concentrations of the poly-guanidino compounds discussed above, added directly into the perfusion ACSF. Hypoxic duration was continued until 5 minutes after the disappearance of the hypoxic injury potential (Fairchild et al 1988) in the unmedicated stimulated slice. Final recovery was assessed 60 minutes after returning to oxygenated conditions. Exposure to the poly-guanidino compounds began 30 minutes prior to hypoxia and continued through the first 15 minutes of recovery.

[3] = LD50 toxicity test, intraperitoneal injection in mice; assay type: in vivo; conditions: for LD50: mouse, in vivo, ip
Method: At roughly the same time as the hippocampal tissue tests were being carried out, various polyamine compounds were also tested in toxicity tests, using conventional LD50 tests in mice. […] According, subsequent in vivo tests focused mainly on the CYP-PA1 compound.
These tests used intraperitoneal (IP) injection in mice.

[4] = test system: neurons in CA1 and CA2 fields of the hippocampus and in the subiculum; experiment: In vivo protection against global brain ischemia (bilateral carotid occlusion, gerbils); set-up: species or system Adult male Mongolian gerbils; conditions: for median number of visibly damaged neurons, CA2: saline controls 23.9; for median number of visibly damaged neurons, Subiculum: saline controls 214.0; for median number of visibly damaged neurons, CA1: saline controls 235.5; for protection against ischemia: gerbils, IP
Method: Adult male Mongolian gerbils, 50 to 60 grams body weight, were put under methoxyflurane anesthesia and surgically subjected to reversible bilateral carotid occlusion for 5 minutes, using published methods (Wasterlain et al 1996). Occlusion was produced by exposure of both common carotid arteries via a ventral midline incision, isolation of the carotids with 4-0 silk suture, and application of microaneurysm clips. After five minutes of occlusion, the clips were removed, and the incision was closed. Body temperature was maintained at 37° C. throughout the surgical and recovery periods.
Blockage of both common carotids generates global brain ischemia in most gerbils. However, some gerbils contain a vascular structure at the base of the brain which resembles the Circle of Willis in humans, which allows some commingling of oxygenated blood from the carotid and vertebral arteries. Accordingly, the surgical method of generating global ischemia in gerbils by clamping flow through the carotids is not completely reliable in all test animals. To overcome this problem, a sufficient number of gerbils must be treated and tested to ensure statistically significant and reliable results.
A solution containing the test compound (or saline, as a control) was administered at the dosage and time described below, via intraperitoneal (IP) injection. The gerbils were sacrificed 72 hours later, and the brains were perfusion-fixed with paraformaldehyde. Serial sections of the brain were cut and stained with hematoxylin and eosin, and quantitative cell counts of live and dead neurons in the CA1 and CA2 fields of the hippocampus and in the subiculum were made, using both light and fluorescence microscopy. Evaluation of neuronal damage in other brain regions was also made on a semi-quantitative scale, and statistical analysis was performed on all damage scores (non-paired Student's T test).
The in vivo tests involving the CYP-PA2 compound used two different dosage regimens. One set of test animals received two injections: 30 mg/kg, at 30 minutes prior to the start of ischemia, and another 30 mg/kg at 90 minutes after the termination of ischemia. […] This neuroprotective activity was statistically significant at higher than the 95% level. A second set of test animals received a smaller dosage (10 mg/kg) of CYP-PA2, in a single injection 30 minutes before the onset of ischemia.
Tests on the CYP-PA1 compound used three different dosage levels: 7.5 mg/kg, injected 30 minutes before occlusion began; 20 mg/kg, injected 30 minutes before occlusion began; and 20 mg/kg, injected 30 minutes after occlusion was terminated.
The values reported in Table 3 are median numbers of visibly damaged neurons, counted in a single entire tissue slice.

[5] = test system: L-type channels; conditions: background; cited from earlier work
[6] = test system: T channels; conditions: background; cited from earlier work
[7] = stimulated slices, antidromic, read-out: EC50, antidromic PS amplitude, stimulated slices
[8] = stimulated slices, orthodromic, read-out: EC50, orthodromic PS amplitude, stimulated slices
[9] = unstimulated slices, antidromic, read-out: EC50, antidromic PS amplitude, unstimulated slices
[10] = unstimulated slices, orthodromic, read-out: EC50, orthodromic PS amplitude, unstimulated slices
[11] = 20 mg/kg IP post (30 minutes after occlusion terminated)

Row | SMILES | IC50 [1] [µM] | neuroprotective activity in hippocampal slices [2] | EC50 [2, 7] [µM] | EC50 [2, 8] [µM] | EC50 [2, 9] [µM] | EC50 [2, 10] [µM] | protection against ischemia [4] | binding to L-type channels [5] | binding to T channels [6] | relative potency in hippocampal slices [2] | further results
1 | N=C(N)NCCC[C@H](N)C(=O)NCCN(CCNC(=O)[C@@H](N)CCCNC(=N)N)CCNC(=O)[C@@H](N)CCCNC(=N)N [CYP-PA1, tris(arginyl-2-aminoethyl)amine] | > 300 | substantial neuroprotective activity | 95 | 97 | 87 | 90 | quite substantial and beneficial; also recorded: substantial and beneficial protection against actual ischemia |  |  |  | toxicity: lethal or other adverse effects ([3]; IP, even at highest dosage tested (200 mg/kg)): no detectable lethal or other adverse effects; also recorded: completely free of any toxicity concerns; median number of visibly damaged neurons, CA2 ([4]; 7.5 mg/kg IP pre-occlusion): 15.2; median number of visibly damaged neurons, Subiculum ([4]; 7.5 mg/kg IP pre-occlusion): 91.5; median number of visibly damaged neurons, CA1 ([4]; 7.5 mg/kg IP pre-occlusion): 37.5; median number of visibly damaged neurons, CA2 [4, 11]: 14.7; median number of visibly damaged neurons, Subiculum [4, 11]: 31.0; median number of visibly damaged neurons, CA1 [4, 11]: 14.5; median number of visibly damaged neurons, CA2 ([4]; 20 mg/kg IP pre-occlusion): 10.4; median number of visibly damaged neurons, Subiculum ([4]; 20 mg/kg IP pre-occlusion): 38.5; median number of visibly damaged neurons, CA1 ([4]; 20 mg/kg IP pre-occlusion): 18.0; significance of reduction in neuronal damage, CA2 ([4]; CA2 region): did not rise to the level of significance at the 95% confidence level; number of injured neurons vs saline-treated controls ([4]; all treatment dosages): substantially reduced; significance level of reduction in neuronal damage, subiculum and CA1 ([4]; subiculum and CA1 regions): ≥ 98%
2 | Fc1ccc(C(c2ccc(F)cc2)N2CCN(C/C=C/c3ccccc3)CC2)cc1 [flunarizine] |  |  |  |  |  |  |  | bind to L-type channels | not to T or N channels |  | 
3 | N=C(N)NCCC[C@H](NC(=O)[C@@H](N)CCCNC(=N)N)C(=O)NCCN(CCNC(=O)[C@H](CCCNC(=N)N)NC(=O)[C@@H](N)CCCNC(=N)N)CCNC(=O)[C@H](CCCNC(=N)N)NC(=O)[C@@H](N)CCCNC(=N)N [CYP-PA2, Tris(arginyl-arginyl-2-aminoethyl)amine] | > 100 | substantial neuroprotective activity; also recorded: potent neuroprotective benefits | 42 | 43 | 37 | 38 | good neuroprotective activity; also recorded: substantial and beneficial protection against actual ischemia |  |  | somewhat more potent than the tri-arginine compound, CYP-PA1 | LD50 ([3]; read-out: LD50): ~125 mg/kg; LD50 ([3]; read-out: LD50 level): 125 mg/kg; statistical significance of reduction of neuronal damage ([4]; 10 mg/kg IP single injection): did not reach the 95% confidence level; neurons damaged ([4]; 10 mg/kg IP single injection 30 minutes before ischemia, untreated control 74.6%): 56.1%; neurons showing visible damage ([4]; 2 x 30 mg/kg IP, 30 minutes before and 90 minutes after ischemia, untreated control 74.6%): 40.9%; statistical significance of neuroprotective activity ([4]; 2 x 30 mg/kg IP, confidence level): > 95%
4 | COC(=O)C1=C(C)NC(C)=C(C(=O)OC)C1c1ccccc1[N+](=O)[O-] [nifedipine] |  |  |  |  |  |  |  | bind to L-type channels | not to T or N channels |  | 
5 | N=C(N)NCCC[C@H](NC(=O)[C@@H](N)CCCNC(=N)N)C(=O)NCCN(CCN)CCNC(=O)[C@H](CCCNC(=N)N)NC(=O)[C@@H](N)CCCNC(=N)N [CYP-PA2X] |  |  |  |  |  |  |  |  |  | not as potent as the fully di-arginylated compound CYP-PA2 | 
6 | COC(=O)C1=C(C)NC(C)=C(C(=O)OCCN(C)Cc2ccccc2)C1c1cccc([N+](=O)[O-])c1 (centres unmarked) [nicardipine] |  |  |  |  |  |  |  | bind to L-type channels | not to T or N channels |  | 
